For 18 compounds, IC50 and Ki results are on record in US20230159510A1, “NOVEL PRMT5 INHIBITORS” (AMGEN INC., priority 2020, published 2023).

Read-outs that look alike come from different tables or passages of the source.

One test relates to HCT116 MTAP null cells. As to the kind of experiment: HCT116 proliferation assay, MTAP null cells (CellTiter-Glo, 6 days). The format is cell-based. Particulars: read-out: Protif_ HCT116-MTAP null IC50. In outline: (§1)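 Compound titrations (top dose 1 or 10 µM, 1:3 dilution, 8 or 9 concentrations) and a DMSO control were applied to cells cultured overnight beforehand in RPMI 1640 with 10% FBS at 37° C, 5% CO2; viability was scored from luminescence.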
For orientation: Cellular ATP, detected with luciferase, serves as a proxy for viable cell number.

Another test deals with HCT116 WT cells. As to the kind of experiment: HCT116 proliferation assay, WT cells (CellTiter-Glo, 6 days). Particulars: read-out: Prolif_HCT116-WT IC50. The format is cell-based. In short, it runs like this: as §1
The next test concerns the target PRMT5/MEP50 (Homo sapiens, UniProt O14744). As to the kind of experiment: MTase-Glo methyl transferase assay, Method A (Histone H4 peptide, 1 µM MTA, 24 h pre-incubation). Type of test: biochemical. Also on record: made in house. The following applies: read-out: PRMT5 MTase Glo Ki (nM, Meth. A). In outline:
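Luminescent SAH detection (MTase-Glo) after a 2 h room-temperature methylation of 1 µM biotinylated H4 (1-21) peptide by 10 nM PRMT5/MEP50 with 5 µM SAM, in 50 mM Tris pH 8.0.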

Sequence of PRMT5/MEP50 (O14744 whole entry): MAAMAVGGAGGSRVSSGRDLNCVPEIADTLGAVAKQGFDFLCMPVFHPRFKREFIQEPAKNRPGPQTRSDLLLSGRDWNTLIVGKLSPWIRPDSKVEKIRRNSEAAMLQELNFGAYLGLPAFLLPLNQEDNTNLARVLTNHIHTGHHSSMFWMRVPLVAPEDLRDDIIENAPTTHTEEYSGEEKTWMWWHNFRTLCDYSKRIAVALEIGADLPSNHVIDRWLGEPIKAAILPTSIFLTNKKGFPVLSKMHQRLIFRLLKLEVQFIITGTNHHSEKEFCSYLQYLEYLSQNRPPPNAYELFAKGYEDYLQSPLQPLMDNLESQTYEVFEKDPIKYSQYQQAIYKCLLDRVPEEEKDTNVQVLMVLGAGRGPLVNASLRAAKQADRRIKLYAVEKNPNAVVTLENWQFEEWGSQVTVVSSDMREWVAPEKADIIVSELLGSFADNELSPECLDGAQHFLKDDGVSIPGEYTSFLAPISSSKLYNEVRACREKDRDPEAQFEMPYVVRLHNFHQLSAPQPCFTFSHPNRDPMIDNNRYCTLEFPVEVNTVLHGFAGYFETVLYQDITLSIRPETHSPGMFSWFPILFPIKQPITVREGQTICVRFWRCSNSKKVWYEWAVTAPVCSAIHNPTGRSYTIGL
Sequence of PRMT5/MEP50 (Q9BQA1 whole entry partner): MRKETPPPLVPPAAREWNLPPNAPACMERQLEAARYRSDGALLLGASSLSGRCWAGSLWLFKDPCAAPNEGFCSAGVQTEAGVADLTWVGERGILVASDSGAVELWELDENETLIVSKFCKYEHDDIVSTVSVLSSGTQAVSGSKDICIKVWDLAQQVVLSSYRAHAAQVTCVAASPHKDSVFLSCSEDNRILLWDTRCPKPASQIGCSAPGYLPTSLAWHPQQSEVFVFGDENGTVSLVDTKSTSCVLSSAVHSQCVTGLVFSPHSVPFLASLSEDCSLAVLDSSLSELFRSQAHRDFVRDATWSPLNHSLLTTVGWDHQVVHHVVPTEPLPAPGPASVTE

With `C[C@H](c1ncccc1F)N(Cc1ccc(C#N)cn1)C(=O)c1cnc2nc(N)c(Br)cc2c1` [Example 354, 7-amino-6-bromo-N-((5-cyano-2-pyridinyl)methyl)-N-((1R)-1-(3-fluoro-2-pyridinyl)ethyl)-1,8-naphthyridine-3-carboxamide], the concentration for half-maximal inhibition (IC50) (commonly the concentration at which inhibition is half-maximal) in the test on HCT116 MTAP null cells (HCT116-MTAP null, 144 h) is 378 nM; in the test with HCT116 WT cells (Homo sapiens, HCT-116, 144 h), > 10000 nM. On PRMT5/MEP50, the Ki (commonly the dissociation constant of the complex between target and ligand, obtained from inhibition or displacement) stood at 0.29 nM.

Regarding `Cc1cc2cc(C(=O)N(Cc3ccc(C(N)=O)cc3)Cc3ccc(C(F)(F)F)cn3)ccc2nc1N` [Example 355, 2-amino-N-(4-carbamoylbenzyl)-3-methyl-N-((5-(trifluoromethyl)-2-pyridinyl)methyl)-6-quinolinecarboxamide], the IC50 in the test on HCT116 MTAP null cells (HCT116-MTAP null, 144 h) amounted to 159 nM; in the test with HCT116 WT cells (Homo sapiens, HCT-116, 144 h) it was 3350 nM. In addition, the Ki at PRMT5/MEP50 was 0.2 nM.

Regarding `Cc1cc2cc(C(=O)N(Cc3ccc(C(F)(F)F)cn3)Cc3ccnc4[nH]ccc34)ccc2nc1N` [Example 356, 2-amino-3-methyl-N-(1H-pyrrolo[2,3-b]pyridin-4-ylmethyl)-N-((5-(trifluoromethyl)-2-pyridinyl)methyl)-6-quinolinecarboxamide], the IC50 with HCT116 MTAP null cells (HCT116-MTAP null, 144 h) came to 35 nM; in the test on HCT116 WT cells (Homo sapiens, HCT-116, 144 h), 801 nM. For the same compound, the inhibition constant (Ki) at PRMT5/MEP50 was determined as 0.02 nM.

`Cc1cc2cc(C(=O)N(Cc3ccc(Br)cn3)CC(C)C)ccc2nc1N` [Example 357, 2-amino-N-((5-bromo-2-pyridinyl)methyl)-3-methyl-N-(2-methylpropyl)-6-quinolinecarboxamide]: the concentration for half-maximal inhibition (IC50) in the test with HCT116 MTAP null cells (HCT116-MTAP null, 144 h) was found to be 385 nM; in the test on HCT116 WT cells (Homo sapiens, HCT-116, 144 h), 7050 nM. In addition, the Ki at PRMT5/MEP50 was found to be 4.34 nM.

In the case of `Cc1cc2cc(C(=O)N(Cc3ccc(N4CCC(F)(F)C4)cn3)[C@H](C)c3ncccn3)ccc2nc1N` [Example 358, 2-amino-N-((5-(3,3-difluoro-1-pyrrolidinyl)-2-pyridinyl)methyl)-3-methyl-N-((1R)-1-(2-pyrimidinyl)ethyl)-6-quinolinecarboxamide], the concentration for half-maximal inhibition (IC50) in the test on HCT116 MTAP null cells (HCT116-MTAP null, 144 h) was found to be 53 nM; in the test with HCT116 WT cells (Homo sapiens, HCT-116, 144 h) it was 1370 nM. Further, on PRMT5/MEP50, the inhibition constant (Ki) came out at 2.5 nM.

With `Cc1cc2cc(C(=O)N(Cc3ccc(N4CC(F)(F)C4)cn3)[C@H](C)c3ncccn3)ccc2nc1N` [Example 359, 2-amino-N-((5-(3,3-difluoro-1-azetidinyl)-2-pyridinyl)methyl)-3-methyl-N-((1R)-1-(2-pyrimidinyl)ethyl)-6-quinolinecarboxamide], the half-inhibitory concentration (IC50) in the test on HCT116 MTAP null cells (HCT116-MTAP null, 144 h) was determined as 208 nM; in the test on HCT116 WT cells (Homo sapiens, HCT-116, 144 h), 4740 nM. In addition, at PRMT5/MEP50, the Ki is < 0.1 nM.

As to `Cc1cc2cc(C(=O)N(Cc3ccc(C(F)(F)F)cn3)[C@H](C)c3ccc(F)cc3)ccc2nc1N` [Example 360, 2-amino-N-((1R)-1-(4-fluorophenyl)ethyl)-3-methyl-N-((5-(trifluoromethyl)-2-pyridinyl)methyl)-6-quinolinecarboxamide], the IC50 in the test with HCT116 MTAP null cells (HCT116-MTAP null, 144 h) worked out at 199 nM; in the test on HCT116 WT cells (Homo sapiens, HCT-116, 144 h), 4810 nM. Moreover, the inhibitory constant (Ki) on PRMT5/MEP50 amounted to 0.08 nM.

As for `Cc1cc2cc(C(=O)N(Cc3ccc(C(F)(F)F)cn3)[C@@H]3CCCC[C@H]3O)ccc2nc1N` [Example 361, 2-amino-N-((1R,2R)-2-hydroxycyclohexyl)-3-methyl-N-((5-(trifluoromethyl)-2-pyridinyl)methyl)-6-quinolinecarboxamide], the IC50 with HCT116 MTAP null cells (HCT116-MTAP null, 144 h) was found to be 116 nM; in the test on HCT116 WT cells (Homo sapiens, HCT-116, 144 h), 3220 nM. Also, the Ki on PRMT5/MEP50 amounted to 2.1 nM.

With `Cc1cc2cc(C(=O)N(Cc3ccc(C(F)(F)F)cn3)[C@@H]3CCC[C@H]3O)ccc2nc1N` [Example 362, 2-amino-N-((1R,2R)-2-hydroxycyclopentyl)-3-methyl-N-((5-(trifluoromethyl)-2-pyridinyl)methyl)-6-quinolinecarboxamide], the half-maximal inhibitory concentration (IC50) stood at 106 nM in the test on HCT116 MTAP null cells (HCT116-MTAP null, 144 h) and 2460 nM with HCT116 WT cells (Homo sapiens, HCT-116, 144 h). Also, the Ki on PRMT5/MEP50 stood at 0.11 nM.

Turning to `Cc1cc2cc(C(=O)N(Cc3ccc(C(F)(F)F)nn3)[C@@H]3CCC[C@H]3O)ccc2nc1N` [Example 363, 2-amino-N-((1R,2R)-2-hydroxycyclopentyl)-3-methyl-N-((6-(trifluoromethyl)pyridazin-3-yl)methyl)quinoline-6-carboxamide], the IC50 came to 326 nM in the test with HCT116 MTAP null cells (HCT116-MTAP null, 144 h) and 7160 nM in the test with HCT116 WT cells (Homo sapiens, HCT-116, 144 h). The inhibitory constant (Ki) on PRMT5/MEP50 turned out to be 0.2 nM.

Regarding `Cc1cc2cc(C(=O)N(Cc3ccc(C(F)F)cn3)[C@@H]3CCC[C@H]3O)ccc2nc1N` [Example 364, 2-amino-N-((5-(difluoromethyl)pyridin-2-yl)methyl)-N-((1R,2R)-2-hydroxycyclopentyl)-3-methylquinoline-6-carboxamide], the IC50 is 227 nM with HCT116 MTAP null cells (HCT116-MTAP null, 144 h) and 6200 nM in the test with HCT116 WT cells (Homo sapiens, HCT-116, 144 h). Moreover, the Ki at PRMT5/MEP50 is 0.18 nM.

Consider `Cc1cc2cc(C(=O)N(Cc3ccc(C#N)cn3)[C@@H]3CCC[C@H]3O)ccc2nc1N` [Example 365, 2-amino-N-((5-cyanopyridin-2-yl)methyl)-N-((1R,2R)-2-hydroxycyclopentyl)-3-methylquinoline-6-carboxamide], for which the IC50 in the test with HCT116 MTAP null cells (HCT116-MTAP null, 144 h) was 391 nM; in the test on HCT116 WT cells (Homo sapiens, HCT-116, 144 h), > 10000 nM. In addition, the Ki at PRMT5/MEP50 is 0.42 nM.

Regarding `Cc1cc2cc(C(=O)N(Cc3ccc(Br)nn3)[C@@H]3CCC[C@H]3O)ccc2nc1N` [Example 366, 2-amino-N-((6-bromo-3-pyridazinyl)methyl)-N-((1R,2R)-2-hydroxycyclopentyl)-3-methyl-6-quinolinecarboxamide], the IC50 in the test on HCT116 MTAP null cells (HCT116-MTAP null, 144 h) stood at 218 nM; in the test on HCT116 WT cells (Homo sapiens, HCT-116, 144 h), 7010 nM. Moreover, the inhibitory constant (Ki) on PRMT5/MEP50 was determined as 0.18 nM.

Regarding `COc1ccc(CN(C(=O)c2ccc3nc(N)c(C)cc3c2)[C@@H]2CCC[C@H]2O)nn1` [Example 367, 2-amino-N-((1R,2R)-2-hydroxycyclopentyl)-N-((6-methoxypyridazin-3-yl)methyl)-3-methylquinoline-6-carboxamide], the IC50 is 282 nM in the test with HCT116 MTAP null cells (HCT116-MTAP null, 144 h) and > 10000 nM with HCT116 WT cells (Homo sapiens, HCT-116, 144 h). On PRMT5/MEP50, the inhibition constant (Ki) was 0.41 nM.

For `Cc1cc2cc(C(=O)N(Cc3ccc(C(F)(F)F)cn3)Cc3ccnc4[nH]ccc34)cnc2nc1N` [Example 368, N-((1H-pyrrolo[2,3-b]pyridin-4-yl)methyl)-7-amino-6-methyl-N-((5-(trifluoromethyl)pyridin-2-yl)methyl)-1,8-naphthyridine-3-carboxamide], the IC50 was determined as 411 nM in the test on HCT116 MTAP null cells and 7660 nM in the test with HCT116 WT cells (Homo sapiens, HCT-116, 144 h). Moreover, the Ki at PRMT5/MEP50 came out at 0.14 nM.

`Cc1cc2cc(C(=O)N(Cc3ccc4[nH]ncc4c3)Cc3ccc(C(F)(F)F)cn3)ccc2nc1N` [Example 369, 2-amino-N-(1H-indazol-5-ylmethyl)-3-methyl-N-((5-(trifluoromethyl)-2-pyridinyl)methyl)-6-quinolinecarboxamide]: the IC50 was 138 nM in the test with HCT116 MTAP null cells and 3400 nM with HCT116 WT cells. On PRMT5/MEP50, the inhibition constant Ki was 0.17 nM.

As for `COCCN(Cc1ccc(C(F)(F)F)cn1)C(=O)c1ccc2nc(N)c(C)cc2c1` [Example 370, 2-amino-N-(2-methoxyethyl)-3-methyl-N-((5-(trifluoromethyl)-2-pyridinyl)methyl)-6-quinolinecarboxamide], the IC50 with HCT116 MTAP null cells (HCT116-MTAP null, 144 h) amounted to 194 nM; with HCT116 WT cells (Homo sapiens, HCT-116, 144 h) it was 5620 nM. On PRMT5/MEP50, the inhibition constant (Ki) is 0.79 nM.

For `Cc1cc2cc(C(=O)N(Cc3ccc(C(F)(F)F)cn3)Cc3cccc4[nH]ncc34)ccc2nc1N` [Example 371, 2-amino-N-(1H-indazol-4-ylmethyl)-3-methyl-N-((5-(trifluoromethyl)-2-pyridinyl)methyl)-6-quinolinecarboxamide], the 50% inhibitory concentration (IC50) with HCT116 MTAP null cells (HCT116-MTAP null, 144 h) was determined as 69 nM; in the test on HCT116 WT cells (Homo sapiens, HCT-116, 144 h), 1390 nM. Also, on PRMT5/MEP50, the inhibitory constant (Ki) amounted to 0.01 nM.
